According to patent US20110195900A1, “PEPTIDIC PTH RECEPTOR AGONISTS” (FERRING B.V., priority 2008, published 2011):
Like-named read-outs stand apart in the source and are kept apart here. Non-standard residues stand in square brackets, D forms with d. Residues, ends and D or L forms follow the SMILES beside them. 1Nal = N[C@@H](Cc1cccc2ccccc12)C(=O)O; β3hI = CC[C@H](C)[C@H](N)CC(=O)O; Nle = CCCC[C@H](N)C(=O)O; Aib = CC(C)(N)C(=O)O; βAla = NCCC(=O)O

Legend:
human PTH-1 receptor = target: T1, human PTH-1 receptor (Homo sapiens, UniProt Q03431); experiment: Reporter gene assay (CRE-luciferase) for agonist activity in transiently transfected HEK-293 cells; format: cell-based; settings: for hPTHR-2/hPTHR-1: Table 3, selectivity for hPTH-1 receptor over hPTH-2 receptor
T1 construct: expressed in transfected cells; host or cells: HEK-293
T1 sequence (Q03431 27-593): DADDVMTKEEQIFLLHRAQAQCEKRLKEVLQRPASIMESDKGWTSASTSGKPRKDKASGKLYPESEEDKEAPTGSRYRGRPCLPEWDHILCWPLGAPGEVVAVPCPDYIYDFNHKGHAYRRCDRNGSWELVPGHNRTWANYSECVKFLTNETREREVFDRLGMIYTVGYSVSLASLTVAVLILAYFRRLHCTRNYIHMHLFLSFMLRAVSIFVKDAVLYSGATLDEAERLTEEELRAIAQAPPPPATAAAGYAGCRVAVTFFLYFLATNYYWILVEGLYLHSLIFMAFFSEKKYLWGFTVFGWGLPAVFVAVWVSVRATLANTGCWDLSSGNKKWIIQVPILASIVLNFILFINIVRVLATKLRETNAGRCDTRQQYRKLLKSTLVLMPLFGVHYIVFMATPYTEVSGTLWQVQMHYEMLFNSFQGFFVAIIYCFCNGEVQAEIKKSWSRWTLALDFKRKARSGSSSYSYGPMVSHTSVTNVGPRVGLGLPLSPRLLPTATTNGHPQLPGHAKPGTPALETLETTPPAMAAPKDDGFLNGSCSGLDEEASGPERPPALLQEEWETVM
In short: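 HEK-293 cells transiently transfected with SV40-driven human PTH-1 receptor and CRE-luciferase reporter, exposed to serial compound dilutions for 4-5 h, then lysed for luciferase readout; efficacy and EC50 by non-linear regression, PTH (1-34) as internal control, n≥3. Selectivity measured in analogous human PTH-2 receptor luciferase reporter assays.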

human PTH-2 receptor = target: T2, human PTH-2 receptor (Homo sapiens, UniProt P49190); experiment: Luciferase-based transcriptional reporter gene assay for selectivity; format: cell-based
T2 construct: expressed in transfected cells
Experimental: Agonist activity of compounds on the human PTH-1 receptor was determined in a reporter gene assay by transiently transfecting HEK-293 cells with plasmids encoding human PTH-1 receptor under control of the SV40 promoter and a luciferase reporter gene under control of cAMP responsive elements (CRE). See Himmler et al, J. Recept. Res. 13 (1993) 79-94, for further guidance on this assay. Transfected cells were exposed to serial dilutions of compounds for 4-5 hours followed by lysis of cells, determination of luciferase activity, and determination of compound efficacies and EC50 values through non-linear regression.
PTH (1-34) was used as an internal control in each experiment and compounds were tested in at least three independent experiments. To determine selectivity, compounds were tested in luciferase-based transcriptional reporter gene assays expressing the human PTH-2 receptor.

T2 sequence (P49190 25-550): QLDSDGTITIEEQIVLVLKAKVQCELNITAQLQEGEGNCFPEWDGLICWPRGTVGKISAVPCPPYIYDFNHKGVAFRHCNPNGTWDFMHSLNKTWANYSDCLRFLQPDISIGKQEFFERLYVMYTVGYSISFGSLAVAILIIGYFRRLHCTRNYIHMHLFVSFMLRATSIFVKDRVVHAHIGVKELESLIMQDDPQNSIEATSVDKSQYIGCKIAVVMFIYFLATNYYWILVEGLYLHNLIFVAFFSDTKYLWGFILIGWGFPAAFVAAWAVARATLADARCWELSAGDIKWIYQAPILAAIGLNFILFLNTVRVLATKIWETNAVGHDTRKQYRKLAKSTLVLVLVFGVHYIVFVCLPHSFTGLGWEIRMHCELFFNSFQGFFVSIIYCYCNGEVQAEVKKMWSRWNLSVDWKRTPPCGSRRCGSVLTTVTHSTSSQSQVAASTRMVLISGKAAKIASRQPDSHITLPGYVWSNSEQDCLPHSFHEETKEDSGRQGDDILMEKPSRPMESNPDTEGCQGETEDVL

Structure (SMILES): CCCC[C@H](NC(=O)[C@H](CO)NC(=O)[C@H](CC(N)=O)NC(=O)[C@H](CC(C)C)NC(=O)[C@H](Cc1c[nH]cn1)NC(=O)[C@H](CCCCN)NC(=O)CNC(=O)[C@H](CC(C)C)NC(=O)[C@H](CC(N)=O)NC(=O)[C@H](Cc1c[nH]cn1)NC(=O)[C@H](CCCC)NC(=O)[C@H](CC(C)C)NC(=O)[C@H](CCC(N)=O)NC(=O)[C@@H](NC(=O)[C@H](CCC(=O)O)NC(=O)[C@H](CO)NC(=O)[C@@H](NC(=O)[C@@H](N)CO)C(C)C)[C@@H](C)CC)C(=O)NCCC(=O)N[C@@H](CCCNC(=N)N)C(=O)N[C@H](C(=O)N[C@@H](CCC(=O)O)C(=O)N[C@@H](Cc1cccc2ccccc12)C(=O)N[C@@H](CC(C)C)C(=O)N[C@@H](CCCNC(=N)N)C(=O)N[C@@H](CCCCN)C(=O)N[C@@H](CC(C)C)C(=O)N[C@@H](CC(C)C)C(=O)N[C@@H](CCC(N)=O)C(=O)N[C@@H](CC(=O)O)C(=O)N[C@H](C(=O)N[C@@H](Cc1c[nH]cn1)C(=O)N[C@@H](CC(N)=O)C(=O)N[C@@H](Cc1ccccc1)C(N)=O)C(C)C)C(C)C [SEQ ID NO: 11, [Nle^8,18, β-Ala^19,1-Nal^23, Leu^27] hPTH-(1-34)-NH2] (H-SVSEIQL[Nle]HNLGKHLNS[Nle][βAla]RVE[1Nal]LRKLLQDVHNF-NH2; N-terminus assumed)
- hPTHR-2/hPTHR-1 (human PTH-1 receptor; ratio of EC50 values): 69
- EC50 (human PTH-2 receptor; Table 3, luciferase reporter gene assay, read-out: hPTHR-2 EC50): 18 nM

Structure (SMILES): CCCC[C@H](NC(=O)[C@H](CC(C)C)NC(=O)[C@H](CCC(N)=O)NC(=O)[C@@H](NC(=O)[C@H](CCC(=O)O)NC(=O)[C@H](CO)NC(=O)[C@@H](NC(=O)[C@@H](N)CO)C(C)C)[C@@H](C)CC)C(=O)N[C@@H](Cc1c[nH]cn1)C(=O)N[C@@H](CC(N)=O)C(=O)N[C@@H](CC(C)C)C(=O)NCC(=O)N[C@@H](CCCCN)C(=O)N[C@@H](Cc1c[nH]cn1)C(=O)N[C@@H](CC(C)C)C(=O)N[C@@H](CC(N)=O)C(=O)N[C@@H](CO)C(=O)N[C@H](CC(=O)N[C@@H](CCC(=O)O)C(=O)N[C@@H](CCCNC(=N)N)C(=O)N[C@H](C(=O)N[C@@H](CCC(=O)O)C(=O)N[C@@H](Cc1cccc2ccccc12)C(=O)N[C@@H](CC(C)C)C(=O)N[C@@H](CCCNC(=N)N)C(=O)N[C@@H](CCCCN)C(=O)N[C@@H](CC(C)C)C(=O)N[C@@H](CC(C)C)C(=O)N[C@@H](CCC(N)=O)C(=O)N[C@@H](CC(=O)O)C(=O)N[C@H](C(=O)N[C@@H](Cc1c[nH]cn1)C(=O)N[C@@H](CCCCN)C(=O)N[C@@H](Cc1ccccc1)C(N)=O)C(C)C)C(C)C)[C@@H](C)CC [SEQ ID NO: 28, [Nle^8, β-hIle^18,1-Nal^23, Leu^27, Lys^33] hPTH (1-34)-NH2] (H-SVSEIQL[Nle]HNLGKHLNS[β3hI]ERVE[1Nal]LRKLLQDVHKF-NH2)
- hPTHR-2/hPTHR-1 (human PTH-1 receptor; ratio of EC50 values): 209
- EC50 (human PTH-2 receptor): 32 nM

Structure (SMILES): CCCC[C@H](NC(=O)[C@H](CC(C)C)NC(=O)[C@H](CCC(N)=O)NC(=O)[C@@H](NC(=O)[C@H](CCC(=O)O)NC(=O)[C@H](CO)NC(=O)[C@@H](NC(=O)C(C)(C)N)C(C)C)[C@@H](C)CC)C(=O)N[C@@H](Cc1c[nH]cn1)C(=O)N[C@@H](CC(N)=O)C(=O)N[C@@H](CC(C)C)C(=O)NCC(=O)N[C@@H](CCCCN)C(=O)N[C@@H](Cc1c[nH]cn1)C(=O)N[C@@H](CC(C)C)C(=O)N[C@@H](CC(N)=O)C(=O)N[C@@H](CO)C(=O)N[C@H](CC(=O)N[C@@H](CCC(=O)O)C(=O)N[C@@H](CCCNC(=N)N)C(=O)N[C@H](C(=O)N[C@@H](CCC(=O)O)C(=O)N[C@@H](Cc1cccc2ccccc12)C(=O)N[C@@H](CC(C)C)C(=O)N[C@@H](CCCNC(=N)N)C(=O)N[C@@H](CCCCN)C(=O)N[C@@H](CC(C)C)C(=O)N[C@@H](CC(C)C)C(=O)N[C@@H](CCC(N)=O)C(=O)N[C@@H](CC(=O)O)C(=O)N[C@H](C(=O)N[C@@H](Cc1c[nH]cn1)C(=O)N[C@@H](CC(N)=O)C(=O)N[C@@H](Cc1ccccc1)C(N)=O)C(C)C)C(C)C)[C@@H](C)CC [SEQ ID NO: 36, [Aib^1, Nle^8, β-hIle^18,1-Nal^23, Leu^27] hPTH (1-34)-NH2] (H-[Aib]VSEIQL[Nle]HNLGKHLNS[β3hI]ERVE[1Nal]LRKLLQDVHNF-NH2)
- EC50 (human PTH-1 receptor): 0.04 nM
- hPTHR-2/hPTHR-1 (human PTH-1 receptor; ratio of EC50 values): 372
- Selectivity hPTHR-2/hPTHR-1 (human PTH-1 receptor; Table 4 comparison data, ratio of EC50 values): 372
- EC50 (human PTH-2 receptor): 16 nM

Structure (SMILES): CCCC[C@H](NC(=O)[C@H](CC(C)C)NC(=O)[C@H](CCC(N)=O)NC(=O)[C@@H](NC(=O)[C@H](CCC(=O)O)NC(=O)[C@H](CO)NC(=O)[C@@H](NC(=O)[C@@H](N)CO)C(C)C)[C@@H](C)CC)C(=O)N[C@@H](Cc1c[nH]cn1)C(=O)N[C@@H](CCC(=O)O)C(=O)N[C@@H](CC(C)C)C(=O)NCC(=O)N[C@@H](CCCCN)C(=O)N[C@@H](Cc1c[nH]cn1)C(=O)N[C@@H](CC(C)C)C(=O)N[C@@H](CC(N)=O)C(=O)N[C@@H](CO)C(=O)N[C@H](CC(=O)N[C@@H](CCC(=O)O)C(=O)N[C@@H](CCCNC(=N)N)C(=O)N[C@H](C(=O)N[C@@H](CCC(=O)O)C(=O)N[C@@H](Cc1cccc2ccccc12)C(=O)N[C@@H](CC(C)C)C(=O)N[C@@H](CCCNC(=N)N)C(=O)N[C@@H](CCCCN)C(=O)N[C@@H](CC(C)C)C(=O)N[C@@H](CC(C)C)C(=O)N[C@@H](CCC(N)=O)C(=O)N[C@@H](CC(=O)O)C(=O)N[C@H](C(=O)N[C@@H](Cc1c[nH]cn1)C(=O)N[C@@H](CC(N)=O)C(=O)N[C@@H](Cc1ccccc1)C(N)=O)C(C)C)C(C)C)[C@@H](C)CC [SEQ ID NO: 24, [Nle^8, Glu^10, β-hIle^18,1-Nal^23, Leu^27] hPTH (1-34)-NH2] (H-SVSEIQL[Nle]HELGKHLNS[β3hI]ERVE[1Nal]LRKLLQDVHNF-NH2)
- EC50 (human PTH-1 receptor): 0.13 nM
- hPTHR-2/hPTHR-1 (human PTH-1 receptor; ratio of EC50 values): 24
- EC50 (human PTH-2 receptor): 3 nM

Structure (SMILES): CCCC[C@H](NC(=O)[C@H](CC(C)C)NC(=O)[C@H](CCC(N)=O)NC(=O)[C@@H](NC(=O)[C@H](CCC(=O)O)NC(=O)[C@H](CO)NC(=O)[C@@H](NC(=O)[C@@H](N)CO)C(C)C)[C@@H](C)CC)C(=O)N[C@@H](Cc1c[nH]cn1)C(=O)N[C@@H](CO)C(=O)N[C@@H](CC(C)C)C(=O)NCC(=O)N[C@@H](CCCCN)C(=O)N[C@@H](Cc1c[nH]cn1)C(=O)N[C@@H](CC(C)C)C(=O)N[C@@H](CCCCN)C(=O)N[C@@H](CO)C(=O)N[C@H](CC(=O)N[C@@H](CCC(=O)O)C(=O)N[C@@H](CCCNC(=N)N)C(=O)N[C@H](C(=O)N[C@@H](CCC(=O)O)C(=O)N[C@@H](Cc1cccc2ccccc12)C(=O)N[C@@H](CC(C)C)C(=O)N[C@@H](CCCNC(=N)N)C(=O)N[C@@H](CCCCN)C(=O)N[C@@H](CC(C)C)C(=O)N[C@@H](CC(C)C)C(=O)N[C@@H](CCC(N)=O)C(=O)N[C@@H](CCCNC(=N)N)C(=O)N[C@H](C(=O)N[C@@H](Cc1c[nH]cn1)C(=O)N[C@@H](CCC(=O)O)C(=O)N[C@@H](CCC(=O)O)C(N)=O)C(C)C)C(C)C)[C@@H](C)CC [SEQ ID NO: 44, [Nle^8, Ser^10, Lys^16, β-hIle^18,1-Nal^23, Leu^27, Arg^30, Glu^33, Glu^34] hPTH (1-34)-NH2] (H-SVSEIQL[Nle]HSLGKHLKS[β3hI]ERVE[1Nal]LRKLLQRVHEE-NH2)
- EC50 (human PTH-1 receptor): 0.04 nM
- hPTHR-2/hPTHR-1 (human PTH-1 receptor; ratio of EC50 values): 154
- EC50 (human PTH-2 receptor): 6 nM
